Experiments:
Test in all cases: NanoBRET CELLinib128
[1] = target: T1, EPHB2 (Homo sapiens, UniProt P29323); format: binding; conditions: 1 µM; 100% no effect, 0% complete tracer displacement
T1 construct: Full-length kinase ORF (Promega, Madison, WI, USA) cloned in frame with a NanoLuc-vector was transfected into HEK293T cells; host or cells: HEK293T

[2] = target: CLK4 (Homo sapiens, UniProt Q9HAZ1); conditions: read-out: Tracer bound
[3] = target: IRAK1 (Homo sapiens, UniProt P51617); conditions: read-out: Tracer bound
[4] = target: T2, EPHB3 (Homo sapiens, UniProt P54753); format: binding; conditions: 100% no effect, 0% complete tracer displacement, read-out: Tracer bound
T2 construct: Full-length kinase ORF (Promega, Madison, WI, USA) cloned in frame with a NanoLuc-vector was transfected into HEK293T cells; host or cells: HEK293T

[5] = target: LTK (Homo sapiens, UniProt P29376); conditions: read-out: Tracer bound
[6] = target: DDR1 (Homo sapiens, UniProt Q08345); conditions: read-out: Tracer bound
[7] = target: T3, STK35 (Homo sapiens, UniProt Q8TDR2); format: binding; conditions: 100% no effect, 0% complete tracer displacement, read-out: Tracer bound
T3 construct: Full-length kinase ORF (Promega, Madison, WI, USA) cloned in frame with a NanoLuc-vector was transfected into HEK293T cells; host or cells: HEK293T
Method: (§1) To get an impression about the binding strength of the PROTAC MA191 and the reference inhibitor MA68 to other kinases besides FLT3-ITD the binding on a kinase panel of further 128 representative protein kinases at 1 μM concentration was tested using the NanoBRET^TM cellular target engagement assay (CELLinib128 assay, CELLinib GmbH, Frankfurt, Germany). […] In none of the 128 kinases MA191 was able to displace the tracer (inhibitor) used by more than 50%, Table S1, Supplementary Information).
(§2) The CELLinib128 assay was performed by CELLinib GmbH, Frankfurt (Germany) as described previously. In brief: Full-length kinase ORF (Promega, Madison, WI, USA) cloned in frame with a NanoLuc-vector was transfected into HEK293T cells in Opti-MEM without phenol red (Life Technologies, Carlsbad, CA, USA) at a density of 2 × 10^5 cells/mL using FuGENE HD (Promega, E2312) and proteins were allowed to express for 20 h. For CDKs, where indicated below, an excess of an activator without an NLuc-fusion was cotransfected. […] The system was allowed to equilibrate at 37 °C for 2 h and 5% CO2 prior to BRET measurements. For PKCs, a chemical activator PMA was added in a final concentration of 1 µM was added together with test compounds and tracers (Promega, V1171). To measure BRET, NanoBRET^TM NanoGlo substrate + extracellular NanoLuc inhibitor (Promega, N2160) were added as per the manufacturer’s protocol, and filtered luminescence was measured (450 nm BP filter (donor) and 610 nm LP filter (acceptor)). For the 1-shot test compounds, data were normalized to the tracer control and the background control or control compound plateau and an average and SD were calculated. […] For the control compounds competitive displacement data were normalized to the tracer Ctrl and the background Ctrl and then plotted and fitted using GraphPad Prism 10 software using a normalized 3-parameter curve fit with the following equation: Y = 100/(1 + 10^X−LogIC50).

[8] = target: T4, DCLK3 (Homo sapiens, UniProt Q9C098); format: binding; conditions: 100% no effect, 0% complete tracer displacement, read-out: Tracer bound
T4 construct: Full-length kinase ORF (Promega, Madison, WI, USA) cloned in frame with a NanoLuc-vector was transfected into HEK293T cells; host or cells: HEK293T
Method: as §1, §2

[9] = target: T5, PRKAA2 (Homo sapiens, UniProt P54646); format: binding; conditions: 100% no effect, 0% complete tracer displacement, read-out: Tracer bound
T5 construct: Full-length kinase ORF (Promega, Madison, WI, USA) cloned in frame with a NanoLuc-vector was transfected into HEK293T cells; host or cells: HEK293T
Method: as §1, §2

[10] = target: T6, MAP4K3 (Homo sapiens, UniProt Q8IVH8); format: binding; conditions: 1 µM; 100% no effect, 0% complete tracer displacement
T6 construct: Full-length kinase ORF (Promega, Madison, WI, USA) cloned in frame with a NanoLuc-vector was transfected into HEK293T cells; host or cells: HEK293T
Method: as §1, §2

[11] = target: T7, LATS1 (Homo sapiens, UniProt O95835); format: binding; conditions: 100% no effect, 0% complete tracer displacement, read-out: Tracer bound
T7 construct: Full-length kinase ORF (Promega, Madison, WI, USA) cloned in frame with a NanoLuc-vector was transfected into HEK293T cells; host or cells: HEK293T
Method: as §1, §2

[12] = target: T8, RPS6KA2 (Homo sapiens, UniProt Q15349); format: binding; conditions: 100% no effect, 0% complete tracer displacement, read-out: Tracer bound
T8 construct: Full-length kinase ORF (Promega, Madison, WI, USA) cloned in frame with a NanoLuc-vector was transfected into HEK293T cells; host or cells: HEK293T
Method: as §1, §2

[13] = target: T9, CSNK1G2 (Homo sapiens, UniProt P78368); format: binding; conditions: 1 µM; 100% no effect, 0% complete tracer displacement
T9 construct: Full-length kinase ORF (Promega, Madison, WI, USA) cloned in frame with a NanoLuc-vector was transfected into HEK293T cells; host or cells: HEK293T
T9 sequence (P78368 whole entry): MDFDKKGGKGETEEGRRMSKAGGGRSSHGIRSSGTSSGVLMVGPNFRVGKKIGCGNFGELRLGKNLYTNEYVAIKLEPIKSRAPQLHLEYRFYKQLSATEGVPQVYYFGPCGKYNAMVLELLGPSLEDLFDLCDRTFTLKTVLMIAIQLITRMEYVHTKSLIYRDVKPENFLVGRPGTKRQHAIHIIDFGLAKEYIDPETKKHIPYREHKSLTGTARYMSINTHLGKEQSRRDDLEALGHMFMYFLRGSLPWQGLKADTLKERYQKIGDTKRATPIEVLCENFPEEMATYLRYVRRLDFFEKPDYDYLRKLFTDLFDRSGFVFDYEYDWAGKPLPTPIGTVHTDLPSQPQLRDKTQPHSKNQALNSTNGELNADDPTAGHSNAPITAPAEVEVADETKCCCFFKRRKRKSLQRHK
Method: as §1, §2

[14] = target: T10, CDK14-CCNY (Homo sapiens, UniProt O94921); format: binding; conditions: 1 µM; 100% no effect, 0% complete tracer displacement
T10 construct: Full-length kinase ORF (Promega, Madison, WI, USA) cloned in frame with a NanoLuc-vector was transfected into HEK293T cells; host or cells: HEK293T
Method: as §1, §2

[15] = target: T11, TNK2 (Homo sapiens, UniProt Q07912); format: binding; conditions: 100% no effect, 0% complete tracer displacement, read-out: Tracer bound
T11 construct: Full-length kinase ORF (Promega, Madison, WI, USA) cloned in frame with a NanoLuc-vector; host or cells: HEK293T
Method: as §1, §2

[16] = target: T12, CSNK2A2 (Homo sapiens, UniProt P19784); format: binding; conditions: 100% no effect, 0% complete tracer displacement, read-out: Tracer bound
T12 construct: Full-length kinase ORF (Promega, Madison, WI, USA) cloned in frame with a NanoLuc-vector was transfected into HEK293T cells; host or cells: HEK293T
Method: as §1, §2

[17] = target: T13, RET (Homo sapiens, UniProt P07949); format: binding; conditions: 100% no effect, 0% complete tracer displacement, read-out: Tracer bound
T13 construct: Full-length kinase ORF (Promega, Madison, WI, USA) cloned in frame with a NanoLuc-vector was transfected into HEK293T cells; host or cells: HEK293T
T13 sequence (P07949 29-1114): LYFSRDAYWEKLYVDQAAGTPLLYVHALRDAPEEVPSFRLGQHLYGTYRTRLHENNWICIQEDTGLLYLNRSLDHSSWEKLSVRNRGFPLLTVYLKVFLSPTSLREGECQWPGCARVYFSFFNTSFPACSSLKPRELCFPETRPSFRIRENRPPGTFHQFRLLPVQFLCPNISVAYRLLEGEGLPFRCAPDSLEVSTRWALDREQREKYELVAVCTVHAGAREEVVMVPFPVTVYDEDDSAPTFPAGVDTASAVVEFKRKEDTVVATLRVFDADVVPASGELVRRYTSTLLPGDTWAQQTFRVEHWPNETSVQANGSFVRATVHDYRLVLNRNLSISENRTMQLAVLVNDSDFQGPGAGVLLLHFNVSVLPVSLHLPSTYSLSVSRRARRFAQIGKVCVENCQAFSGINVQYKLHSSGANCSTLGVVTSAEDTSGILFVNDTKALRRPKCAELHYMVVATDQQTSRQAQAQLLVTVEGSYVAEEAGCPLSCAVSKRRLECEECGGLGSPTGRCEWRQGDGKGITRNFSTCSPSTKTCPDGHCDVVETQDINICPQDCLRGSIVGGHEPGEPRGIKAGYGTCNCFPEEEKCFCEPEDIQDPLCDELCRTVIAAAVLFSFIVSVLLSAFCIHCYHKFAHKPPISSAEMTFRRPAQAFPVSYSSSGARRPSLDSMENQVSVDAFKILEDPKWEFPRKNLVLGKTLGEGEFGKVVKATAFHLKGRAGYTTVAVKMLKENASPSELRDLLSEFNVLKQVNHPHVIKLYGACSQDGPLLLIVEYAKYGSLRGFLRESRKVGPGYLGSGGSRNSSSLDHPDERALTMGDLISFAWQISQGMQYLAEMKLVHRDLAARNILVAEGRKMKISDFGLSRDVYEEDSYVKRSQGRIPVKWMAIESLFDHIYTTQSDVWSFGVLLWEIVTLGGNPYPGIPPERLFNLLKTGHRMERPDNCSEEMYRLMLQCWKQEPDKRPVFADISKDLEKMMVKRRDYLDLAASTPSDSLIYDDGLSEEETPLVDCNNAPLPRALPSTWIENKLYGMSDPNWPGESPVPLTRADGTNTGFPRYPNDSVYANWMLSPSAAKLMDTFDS
Method: as §1, §2

[18] = target: T14, PAK6 (Homo sapiens, UniProt Q9NQU5); format: binding; conditions: 100% no effect, 0% complete tracer displacement, read-out: Tracer bound
T14 construct: Full-length kinase ORF (Promega, Madison, WI, USA) cloned in frame with a NanoLuc-vector was transfected into HEK293T cells; host or cells: HEK293T
Method: as §1, §2

[19] = target: T15, MYLK3 (Homo sapiens, UniProt Q32MK0); format: binding; conditions: 100% no effect, 0% complete tracer displacement, read-out: Tracer bound
T15 construct: Full-length kinase ORF (Promega, Madison, WI, USA) cloned in frame with a NanoLuc-vector was transfected into HEK293T cells; host or cells: HEK293T
Method: as §1, §2

[20] = target: T16, ERN1 (Homo sapiens, UniProt O75460); format: binding; conditions: 100% no effect, 0% complete tracer displacement, read-out: Tracer bound
T16 construct: Full-length kinase ORF (Promega, Madison, WI, USA) cloned in frame with a NanoLuc-vector was transfected into HEK293T cells; host or cells: HEK293T
T16 sequence (O75460 19-977): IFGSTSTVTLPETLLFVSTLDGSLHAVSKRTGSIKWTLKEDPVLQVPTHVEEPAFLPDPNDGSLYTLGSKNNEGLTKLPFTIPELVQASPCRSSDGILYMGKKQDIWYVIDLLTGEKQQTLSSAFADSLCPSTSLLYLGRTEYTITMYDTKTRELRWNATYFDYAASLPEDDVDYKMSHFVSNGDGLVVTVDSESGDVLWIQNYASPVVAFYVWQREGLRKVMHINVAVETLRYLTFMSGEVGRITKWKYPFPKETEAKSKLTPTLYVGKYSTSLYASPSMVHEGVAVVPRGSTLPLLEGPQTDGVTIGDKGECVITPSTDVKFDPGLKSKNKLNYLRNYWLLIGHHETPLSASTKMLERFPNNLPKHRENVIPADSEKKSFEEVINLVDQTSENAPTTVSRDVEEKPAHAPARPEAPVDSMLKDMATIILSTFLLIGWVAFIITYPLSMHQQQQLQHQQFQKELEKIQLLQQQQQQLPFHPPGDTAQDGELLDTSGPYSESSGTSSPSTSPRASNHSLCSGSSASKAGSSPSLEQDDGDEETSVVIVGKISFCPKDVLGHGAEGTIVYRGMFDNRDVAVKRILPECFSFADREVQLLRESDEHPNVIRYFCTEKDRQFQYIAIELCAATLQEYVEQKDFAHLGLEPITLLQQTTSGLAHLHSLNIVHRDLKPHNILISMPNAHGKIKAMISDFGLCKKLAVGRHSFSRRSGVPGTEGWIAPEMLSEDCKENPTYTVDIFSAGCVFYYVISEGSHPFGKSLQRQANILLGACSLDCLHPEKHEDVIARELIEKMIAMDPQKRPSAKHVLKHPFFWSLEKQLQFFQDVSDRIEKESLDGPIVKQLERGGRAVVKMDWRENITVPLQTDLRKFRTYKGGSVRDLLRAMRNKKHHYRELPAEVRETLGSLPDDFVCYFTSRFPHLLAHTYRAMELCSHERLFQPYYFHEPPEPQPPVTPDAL
Method: as §1, §2

[21] = target: T17, MAP4K2 (Homo sapiens, UniProt Q12851); format: binding; conditions: 100% no effect, 0% complete tracer displacement, read-out: Tracer bound
T17 construct: Full-length kinase ORF (Promega, Madison, WI, USA) cloned in frame with a NanoLuc-vector was transfected into HEK293T cells; host or cells: HEK293T
Method: as §1, §2

[22] = target: T18, JAK3 (Homo sapiens, UniProt P52333); format: binding; conditions: 100% no effect, 0% complete tracer displacement, read-out: Tracer bound
T18 construct: Full-length kinase ORF (Promega, Madison, WI, USA) cloned in frame with a NanoLuc-vector was transfected into HEK293T cells; host or cells: HEK293T
T18 sequence (P52333 whole entry): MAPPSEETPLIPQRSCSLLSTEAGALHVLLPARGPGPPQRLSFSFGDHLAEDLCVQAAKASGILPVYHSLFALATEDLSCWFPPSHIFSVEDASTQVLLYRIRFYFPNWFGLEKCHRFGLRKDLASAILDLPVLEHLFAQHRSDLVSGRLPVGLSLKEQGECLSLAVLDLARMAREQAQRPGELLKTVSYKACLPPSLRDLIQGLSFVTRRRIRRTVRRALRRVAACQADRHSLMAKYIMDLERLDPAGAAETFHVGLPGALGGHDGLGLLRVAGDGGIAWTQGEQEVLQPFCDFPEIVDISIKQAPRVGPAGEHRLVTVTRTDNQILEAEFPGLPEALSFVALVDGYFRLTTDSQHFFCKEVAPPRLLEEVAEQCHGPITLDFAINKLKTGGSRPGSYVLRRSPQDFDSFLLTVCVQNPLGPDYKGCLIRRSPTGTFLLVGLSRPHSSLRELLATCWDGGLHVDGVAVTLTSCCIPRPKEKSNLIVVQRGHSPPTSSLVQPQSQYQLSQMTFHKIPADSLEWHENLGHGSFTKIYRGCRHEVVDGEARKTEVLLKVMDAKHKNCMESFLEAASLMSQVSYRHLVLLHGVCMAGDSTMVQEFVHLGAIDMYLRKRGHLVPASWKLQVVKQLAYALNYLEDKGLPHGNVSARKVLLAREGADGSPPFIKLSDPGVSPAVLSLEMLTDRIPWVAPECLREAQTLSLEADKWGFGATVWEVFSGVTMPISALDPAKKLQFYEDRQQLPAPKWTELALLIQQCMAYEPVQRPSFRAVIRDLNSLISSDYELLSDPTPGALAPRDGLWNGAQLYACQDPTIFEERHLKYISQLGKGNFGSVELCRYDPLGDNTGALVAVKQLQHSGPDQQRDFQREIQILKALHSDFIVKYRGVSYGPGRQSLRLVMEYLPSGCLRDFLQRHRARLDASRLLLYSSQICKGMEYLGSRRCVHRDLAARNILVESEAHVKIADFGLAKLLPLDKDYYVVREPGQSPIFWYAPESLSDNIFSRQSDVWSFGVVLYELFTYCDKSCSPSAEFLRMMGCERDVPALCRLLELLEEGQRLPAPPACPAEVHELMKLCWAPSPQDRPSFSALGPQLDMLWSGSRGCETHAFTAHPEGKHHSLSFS
Method: as §1, §2

[23] = target: T19, LIMK2 (Homo sapiens, UniProt P53671); format: binding; conditions: 100% no effect, 0% complete tracer displacement, read-out: Tracer bound
T19 construct: Full-length kinase ORF (Promega, Madison, WI, USA) cloned in frame with a NanoLuc-vector was transfected into HEK293T cells; host or cells: HEK293T
Method: as §1, §2

[24] = target: T20, WEE2 (Homo sapiens, UniProt P0C1S8); format: binding; conditions: 100% no effect, 0% complete tracer displacement, read-out: Tracer bound
T20 construct: Full-length kinase ORF (Promega, Madison, WI, USA) cloned in frame with a NanoLuc-vector; host or cells: HEK293T
Method: as §1, §2

[25] = target: T21, STK4 (Homo sapiens, UniProt Q13043); format: binding; conditions: 1 µM; 100% no effect, 0% complete tracer displacement
T21 construct: Full-length kinase ORF (Promega, Madison, WI, USA) cloned in frame with a NanoLuc-vector was transfected into HEK293T cells; host or cells: HEK293T
Method: as §1, §2

[26] = target: T22, FGFR2 (Homo sapiens, UniProt P21802); format: binding; conditions: 100% no effect, 0% complete tracer displacement, read-out: Tracer bound
T22 construct: Full-length kinase ORF (Promega, Madison, WI, USA) cloned in frame with a NanoLuc-vector was transfected into HEK293T cells; host or cells: HEK293T
T22 sequence (P21802 22-821): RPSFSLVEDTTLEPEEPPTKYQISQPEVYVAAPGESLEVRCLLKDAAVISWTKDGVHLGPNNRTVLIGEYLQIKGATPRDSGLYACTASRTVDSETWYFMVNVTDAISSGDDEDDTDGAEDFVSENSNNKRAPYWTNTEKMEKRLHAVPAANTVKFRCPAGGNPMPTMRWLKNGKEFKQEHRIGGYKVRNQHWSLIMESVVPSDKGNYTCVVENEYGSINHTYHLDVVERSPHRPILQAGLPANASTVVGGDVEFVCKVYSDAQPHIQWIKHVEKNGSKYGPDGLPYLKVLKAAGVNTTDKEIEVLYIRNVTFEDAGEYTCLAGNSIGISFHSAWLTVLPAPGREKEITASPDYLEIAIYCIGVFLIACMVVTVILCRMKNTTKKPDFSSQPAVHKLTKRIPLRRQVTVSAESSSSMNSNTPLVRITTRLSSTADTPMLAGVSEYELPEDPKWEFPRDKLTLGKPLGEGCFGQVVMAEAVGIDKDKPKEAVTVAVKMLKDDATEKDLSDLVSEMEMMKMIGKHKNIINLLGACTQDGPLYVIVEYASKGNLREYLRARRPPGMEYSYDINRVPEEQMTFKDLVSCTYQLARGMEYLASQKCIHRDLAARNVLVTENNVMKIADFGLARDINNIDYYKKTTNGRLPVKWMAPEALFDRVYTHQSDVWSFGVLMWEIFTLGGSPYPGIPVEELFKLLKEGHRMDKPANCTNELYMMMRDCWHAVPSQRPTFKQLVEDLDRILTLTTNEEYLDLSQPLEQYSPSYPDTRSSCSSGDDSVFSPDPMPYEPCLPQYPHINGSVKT
Method: as §1, §2

[27] = target: T23, ULK3v1 (Homo sapiens, UniProt Q6PHR2); format: binding; conditions: 1 µM; 100% no effect, 0% complete tracer displacement
T23 construct: Full-length kinase ORF (Promega, Madison, WI, USA) cloned in frame with a NanoLuc-vector; host or cells: HEK293T
T23 sequence (Q6PHR2 whole entry): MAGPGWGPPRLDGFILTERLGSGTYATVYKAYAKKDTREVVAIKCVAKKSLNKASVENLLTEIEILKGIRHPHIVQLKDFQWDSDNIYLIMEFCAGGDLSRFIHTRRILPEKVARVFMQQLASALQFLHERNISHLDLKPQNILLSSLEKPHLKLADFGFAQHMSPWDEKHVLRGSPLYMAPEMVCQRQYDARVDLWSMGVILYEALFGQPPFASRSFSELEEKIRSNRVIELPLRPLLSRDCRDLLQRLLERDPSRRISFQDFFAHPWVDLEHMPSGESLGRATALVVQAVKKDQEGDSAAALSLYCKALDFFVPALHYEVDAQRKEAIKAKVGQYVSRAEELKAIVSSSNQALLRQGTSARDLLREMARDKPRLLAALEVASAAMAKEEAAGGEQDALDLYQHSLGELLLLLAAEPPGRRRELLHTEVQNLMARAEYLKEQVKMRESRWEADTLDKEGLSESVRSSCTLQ
Method: as §1, §2

[28] = target: T24, MLTK (Homo sapiens, UniProt Q9NYL2); format: binding; conditions: 100% no effect, 0% complete tracer displacement, read-out: Tracer bound
T24 construct: Full-length kinase ORF (Promega, Madison, WI, USA) cloned in frame with a NanoLuc-vector was transfected into HEK293T cells; host or cells: HEK293T
Method: as §1, §2

[29] = target: T25, EPHA6 (Homo sapiens, UniProt Q9UF33); format: binding; conditions: 100% no effect, 0% complete tracer displacement, read-out: Tracer bound
T25 construct: Full-length kinase ORF (Promega, Madison, WI, USA) cloned in frame with a NanoLuc-vector was transfected into HEK293T cells; host or cells: HEK293T
Method: as §1, §2

## CNC(=O)c1cc(Oc2ccc(NC(=O)Nc3cc(C(C)(C)C)on3)cc2)ccn1 [MA68, reference compound]
[1]
  Tracer bound: 49.5%
[2]
  remaining activity at 1 µM: 93.8%
[3]
  remaining activity at 1 µM: 108%
[4]
  remaining activity at 1 µM: 44.8%
[5]
  remaining activity at 1 µM: 102%
[6]
  remaining activity at 1 µM: 4%
[7]
  remaining activity at 1 µM: 59.6%
[8]
  remaining activity at 1 µM: 113%
[9]
  remaining activity at 1 µM: 109%
[10]
  Tracer bound: 102.6%
[11]
  remaining activity at 1 µM: 106%
[12]
  remaining activity at 1 µM: 116%
[13]
  Tracer bound: 95.1%
[14]
  Tracer bound: 42.0%
[15]
  remaining activity at 1 µM: 116%
[16]
  remaining activity at 1 µM: 110%
[17]
  remaining activity at 1 µM: 3.8%
[18]
  remaining activity at 1 µM: 116%
[19]
  remaining activity at 1 µM: 119%
[20]
  remaining activity at 1 µM: 117%
[21]
  remaining activity at 1 µM: 107%
[22]
  remaining activity at 1 µM: 111%
[23]
  remaining activity at 1 µM: 88.5%
[24]
  remaining activity at 1 µM: 102%
[25]
  Tracer bound: 98.8%
[26]
  remaining activity at 1 µM: 40.7%
[27]
  Tracer bound: 96.1%
[28]
  remaining activity at 1 µM: 15.3%
[29]
  remaining activity at 1 µM: 23.6%

Reference: article PMC13210772, “Dual FLT3/MAPK14 Proteolysis-Targeting Chimera (PROTAC) Induces Potent Acute Myeloid Leukemia Cell Death” (Pharmaceuticals, 2026)
